Laboratory results taken from patent publication US20040138230A1, “Heterocyclic substituted piperazines for the treatment of schizophrenia” (priority 2002, published 2004).

What was measured:
[1] = target: serotonin 2A (5HT2A) receptor (Homo sapiens, UniProt P28223)
Excerpt: The ability of the novel compounds of this invention to bind to the dopamine D2 and serotonin 2A (5HT2A) receptors can be determined using conventional radioligand receptor binding assays. All receptors can be heterologously expressed in cell lines and experiments conducted in membrane preparations from the cell lines using procedures outlined below. IC50 concentrations can be determined by nonlinear regression of concentration-dependent reduction in specific binding. The Cheng-Prussoff equation can be used to convert the IC50 to Ki concentrations.
[^3H]Ketanserin binding to Swiss-h5HT2A cell membranes can be carried out in 250 μl of 50 mM Tris-HCl buffer pH 7.4. Duplicate samples containing (in order of addition) test compounds, 1.0 nM [^3H]ketanserin, and approximately 75 μg protein are incubated for 120 minutes at room temperature. Bound radioligand is separated by rapid filtration under reduced pressure through Whatman GF/B glass fiber filters previously treated with 0.3% polyethyleneimine. Radioactivity retained on the filter is determined by liquid scintillation spectrophotometry.

dopamine D2 receptor = dopamine D2 receptor (Homo sapiens, UniProt P14416)
Sequence of dopamine D2 receptor (P14416 whole entry): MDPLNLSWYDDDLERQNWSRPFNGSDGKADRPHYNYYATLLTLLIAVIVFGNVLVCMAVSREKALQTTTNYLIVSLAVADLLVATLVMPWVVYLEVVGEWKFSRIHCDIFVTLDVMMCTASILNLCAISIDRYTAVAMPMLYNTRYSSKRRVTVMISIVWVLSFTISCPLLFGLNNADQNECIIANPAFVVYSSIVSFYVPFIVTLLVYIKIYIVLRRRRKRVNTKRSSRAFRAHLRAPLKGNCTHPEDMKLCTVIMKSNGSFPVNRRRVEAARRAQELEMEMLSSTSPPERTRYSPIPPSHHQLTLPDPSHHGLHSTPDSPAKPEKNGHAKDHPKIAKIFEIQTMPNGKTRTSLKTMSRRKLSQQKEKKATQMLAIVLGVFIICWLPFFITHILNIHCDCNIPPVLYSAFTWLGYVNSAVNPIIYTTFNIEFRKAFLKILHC

Sequence of serotonin 2A (5HT2A) receptor (P28223 whole entry): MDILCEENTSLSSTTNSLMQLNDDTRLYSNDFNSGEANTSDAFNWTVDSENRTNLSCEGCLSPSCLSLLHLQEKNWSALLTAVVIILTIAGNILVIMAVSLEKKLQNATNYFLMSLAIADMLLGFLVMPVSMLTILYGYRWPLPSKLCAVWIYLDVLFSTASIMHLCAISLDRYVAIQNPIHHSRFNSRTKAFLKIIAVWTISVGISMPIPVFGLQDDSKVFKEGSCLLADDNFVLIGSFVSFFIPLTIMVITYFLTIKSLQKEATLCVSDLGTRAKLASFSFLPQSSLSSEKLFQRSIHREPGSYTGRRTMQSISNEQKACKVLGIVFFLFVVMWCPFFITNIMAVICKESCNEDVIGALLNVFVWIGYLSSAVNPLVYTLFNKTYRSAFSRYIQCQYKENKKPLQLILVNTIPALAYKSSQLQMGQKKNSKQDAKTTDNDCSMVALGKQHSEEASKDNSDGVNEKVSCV

| Ki [1] [nM] | Ki (dopamine D2 receptor) [nM] | melting point [°C] | SMILES |
| --- | --- | --- | --- |
|  |  | 185 to 187 | CC1Cc2cc(CCCN3CCN(c4noc5ccccc45)CC3)ccc2NC1=O (stereo not shown) [Example 60, 6-[3-(4-BENZO[D]ISOXAZOL-3-YL-PIPERAZIN-1-YL)-PROPYL]-3-METHYL-3,4-DIHYDRO-1H-QUINOLIN-2-ONE] |
|  |  | 206 to 208 | CN1Cc2c(c3cc(CCCN4CCN(c5nsc6ccccc56)CC4)ccc3[nH]c2=O)C1 [Example 172, 8-[3-(4-BENZO[D]ISOTHIAZOL-3-YL-PIPERAZIN-1-YL)-PROPYL]-2-METHYL-1,2,3,5-TETRAHYDRO-PYRROLO[3,4-C]QUINOLIN-4-ONE] |
|  |  | 205 to 207 | CN1Cc2c(c3cc(CCN4CCN(c5nsc6ccccc56)CC4)ccc3[nH]c2=O)C1 [Example 173, 8-[2-(4-BENZO[D]ISOTHIAZOL-3-YL-PIPERAZIN-1-YL)-ETHYL]-2-METHYL-1,2,3,5-TETRAHYDRO-PYRROLO[3,4-C]QUINOLIN-4-ONE] |

Continued, compound first:

| SMILES | Ki [1] [nM] | Ki (dopamine D2 receptor) [nM] | melting point [°C] |
| --- | --- | --- | --- |
| CC1(C)Cc2cc(CCN3CCN(c4noc5ccccc45)CC3)ccc2NC1=O [Example 8, 6-[2-(4-BENZO[D]ISOXAZOL-3-YL-PIPERAZIN-1-YL)-ETHYL]-3,3-DIMETHYL-3,4-DIHYDRO-1H-QUINOLIN-2-ONE] | 5 | 7 |  |
| Cc1c(Cl)c(CCN2CCN(c3nsc4ccccc34)CC2)cc2c1NC(=O)CC2(C)C [Example 23, 6-[2-(4-BENZO[D]ISOTHIAZOL-3-YL-PIPERAZIN-1-YL)-ETHYL]-7-CHLORO-4,4,8-TRIMETHYL-3,4-DIHYDRO-1H-QUINOLIN-2-ONE METHANESULFONATE] | 1 | 0.9 |  |
| COc1cccc2c(N3CCN(CCc4cc(C)c5c(c4)C(C)(C)CC(=O)N5)CC3)nsc12 [Example 31, 6-{2-[4-(7-METHOXY-BENZO[D]ISOTHIAZOL-3-YL)-PIPERAZIN-1-YL]-ETHYL}-4,4,8-TRIMETHYL-3,4-DIHYDRO-1H-QUINOLIN-2-ONE] | 2 | 1 |  |
| CC1Cc2cc(CCCN3CCN(c4nsc5ccccc45)CC3)ccc2NC1=O (stereo not shown) [Example 59, 6-[3-(4-BENZO[D]ISOTHIAZOL-3-YL-PIPERAZIN-1-YL)-PROPYL]-3-METHYL-3,4-DIHYDRO-1H-QUINOLIN-2-ONE] |  |  | 212 |
